The values below come from ChEMBL document CHEMBL3784927, “Serum azathioprine and 6-mercaptopurine levels and immunosuppressive activity after azathioprine in uremic patients” (Int J Immunopharmacol, 1986).

A short description of data set [1]: Volume of distribution in uremic patient (15 patients) at 100 mg, iv by gas chromatography-mass spectrometry with multiple detection method. The note with it: human, in vivo.
Data set [2] in a line: AUC (0 to infinity) in uremic patient (7 patients) at 100 mg, po by gas chromatography-mass spectrometry with multiple detection method. The note with it: human, in vivo.
Data set [3] can be described thus: Tmax in uremic patient (8 patients) at 100 mg, po by gas chromatography-mass spectrometry with multiple detection method. The note with it: human, in vivo.
The nature of data set [4]: Clearance in kidney transplant patient. The note with it: human, in vivo.
A short description of data set [5]: Tmax in uremic patient (15 patients) at 100 mg, iv by gas chromatography-mass spectrometry with multiple detection method. The note with it: human, in vivo.
A short description of data set [6]: AUC (0 to infinity) in uremic patient (15 patients) at 100 mg, iv by gas chromatography-mass spectrometry with multiple detection method. The note with it: human, in vivo.
A short description of data set [7]: Total clearance in uremic patient (15 patients) at 100 mg, iv by gas chromatography-mass spectrometry with multiple detection method. The note with it: human, in vivo.
The nature of data set [8]: Cmax in uremic patient (15 patients) at 100 mg, iv by gas chromatography-mass spectrometry with multiple detection method. The note with it: human, in vivo.
The nature of data set [9]: Cmax in uremic patient (8 patients) at 100 mg, po by gas chromatography-mass spectrometry with multiple detection method. The note with it: human, in vivo.
A short description of data set [10]: Half life in human with good renal function. The note with it: in vivo.
Data set [11] can be described thus: Terminal phase half life in uremic patient (15 patients) at 100 mg, iv by gas chromatography-mass spectrometry with multiple detection method. The note with it: human, in vivo.
The nature of data set [12]: Primary phase half life in uremic patient (13 patients) at 100 mg, iv by gas chromatography-mass spectrometry with multiple detection method. The note with it: human, in vivo.

Usually Vd stands for a proportionality between amount in the body and measured concentration, not a real space. Read a low Vd as little distribution into tissue. The term AUC(0-inf) denotes the area under the concentration-time curve extrapolated to infinity. Lower therefore signals less exposure. Broadly, the Tmax is the time from dosing to the highest level. A word on the clearance: it is the volume of plasma or blood freed of the substance per unit of time. A lower clearance goes with inefficient removal. The term Cmax denotes the peak of the concentration-time curve. In general, half-life refers to how long it takes for the measured level to halve. The low end stands for fast loss, the high end for slow loss.

In the case of `Cn1cnc([N+](=O)[O-])c1Sc1ncnc2nc[nH]c12` [AZATHIOPRINE], the Vd in data set [1] came to 438 L. The AUC(0-inf) was 0.164 µM·h in data set [2] and 1.04 µM·h in data set [6]. For the same compound, the figures for the time of peak concentration (Tmax) in data set [3] and in data set [5] were 15 min and 5 min, respectively. Moreover, the clearance in [4] was determined as 57 mL/min/kg; in data set [7] it was 6920 mL/min. Moreover, the Cmax in data set [8] turned out to be 3140 nM; in [9] it was 180 nM. Further, the half-life in data set [10] was found to be 10 min; in data set [11], 49.5 min; in data set [12], 6.05 min.
